The text below walks through data of patent EP0286491B1, “Antimalarial aminoquinoline derivatives, method for their preparation and pharmaceutical composition containing them” (LA REGION WALLONNE, priority 1987, dated 1988).

Series [1] in a line: Acute toxicity after a single i.v. injection in non-infected mice. The series is classed as in vivo. Particulars: for toxicité aiguë compared with Pq: qualitative comparison with primaquine; for LD50 / MTD: mouse, in vivo, iv; for LD50: mice, read-out: dose léthale 50 % (LD₅₀); for MTD: highest dose with weight loss <= 5 % over five days, read-out: dose maximale tolérée (MTD). An excerpt:
La toxicité aiguë en fonction de la dose unique administrée est déterminée sur des souris de 18 à 22 g. Une série de dilutions de chaque composé est injectée par voie intraveineuse à des groupes de 10 souris.
^a : les dérivés sont administrés par vote i.v. trois heures après l'inoculation des sporozoïtes. Les concentrations sont toujours exprimées en mg Pq diphosphate/kg. ^b : la dose maximale tolérée est définie code la dose la plus élevée induisant une perte de poids inférieure ou égale & 5 % du poids initial pendant une période de cinq jours suivant l'injection i.v. ^c : dose léthale tuant 50 % des souris en une seule injection i.v. ^d : dose prophylactique causale permettant de guérir 50 % des souris injectées. ^e : index thérapeutique défini par le rapport LD₅₀/CPD₅₀.

In series [2] the test system is P. berghei berghei (ANKA). The series can be described thus: Causal prophylactic activity in the rodent malaria model (sporozoite-infected mice, single i.v. treatment 3 h after inoculation). In kind it is in vivo, souris Swiss OF1. Particulars: for activité thérapeutique compared with Pq: qualitative comparison with primaquine; for index Pq (CPD₅₀ de la Pq/CPD₅₀ du composé): ratio of CPD₅₀ of Pq to CPD₅₀ of the derivative; for CPD₅₀ (dose prophylactique causale guérissant 50 % des animaux infectés) / ED50: dose as mg Pq diphosphate/kg; for ED50: read-out: CPD₅₀ (dose prophylactique causale guérissant 50 % des animaux infectés); for index thérapeutique (LD₅₀/CPD₅₀): ratio LD₅₀/CPD₅₀. The source says: Le modèle de la malaria du rongeur, Plasmodium berghei-Anopheles stephensi-souris, mis au point par MOST, H., HERMAN, R. & SCHOENFELD, C. (1967) Am. J. Trop. Med. Hyg. 16, 572-575, permet de déterminer l'activité prophylactique causale (schizonticide tissulaire) de nouveaux composés thérapeutiques. La procédure utilisée est dérivée de celle de MOST, H. & MONTUORI, W.A. (1975) Am. J. Trop. Med. Hyg. 24, 179-182. Il s'agit du système P. berghei berghei (ANKA)- Anopheles stephensi-souris Swiss OF1. La souche ANKA de P. b. berghei est entretenue cycliquement sur Anopheles stephensi. La souche de souris Swiss OF1 est particulièrement sensible à P. b. berghei qui produit une infection toujours mortelle.
Les moustiques femelles (80 à 100 individus par préparation) sont débarassés de leurs pattes, ailes et abdomen, puis homogénéisés à 4°C à l'aide d'un potter en verre, dans du milieu M 199 (GIBCO) contenant 10 % de sérum foetal de veau. La suspension de sporozoïtes est ensuite purifiée des débris du moustique par deux centrifugations successives ( 2 min. à 50 g et 5 min. à 200 g) et le surnageant recueilli est conservé à 4°C. Après comptage dans une chambre de Petroff-Hausser, le nombre de parasites est ajusté par dilution avec le même milieu froid, à la densité de 2 x 10⁵ sporozoïtes/ml. L'ensemble de la procédure est toujours effectuée dans un maximum de 35 minutes et permet de préserver la viabilité et l'infectivité des sporozoïtes.
Un volume de 0,5 ml de la suspension contenant 10⁵ sporozoïtes est injectée i.v. aux souris Swiss OF1 femelles de 18 à 22 g utilisées pour les tests thérapeutiques.
Des groupes de 20 à 25 souris infectées comme décrit ci-dessus sont traités en une seule injection intraveineuse de primaquine diphosphate (Pq) ou des dérivés monoacyls et aminoacides de la primaquine sous formes dichlorhydrates (X-Pq) trois heures après l'inoculation des sporozoïtes. Le volume injecté est ajusté en fonction du poids de la souris, à raison de 0,5 ml pour un poids de 25 g. Les composés sont dilués dans du tampon phosphate salin (PBS) pH 7.0 et le pH est ajusté à 7.0. Les souris infectées mais non traitées (5 par groupe) reçoivent le tampon seul et servent à contrôler l'infectivité des sporozoïtes.
Les souris expérimentales sont gardées durant une période de 50 jours. Le développement de la parasitémie est suivi en examinant quotidiennement des frottis de sang, colorés 60 min. au Giemsa à 5 % dans du tampon Sörensen à pH 7,2, à partir du 5ème jour et ce jusqu'au 15ème jour. Le nombre d'animaux infectés peut ainsi être déterminé. Ces résultats permettent d'établir la survie à long terme (LTS, le nombre de souris survivantes non parasitées sur le nombre de souris infectées et traitées).
L'activité prophylactique causale (CPD₅₀) est obtenue par l'analyse des logits de la réponse (exprimée en % de LTS) en fonction de la dose (mg Pq/kg).
Les animaux infectés à l'aide de sporozoïtes de P. berghei sont traités trois heures après avec une seule injection des composés par voie intraveineuse. Ce test permet de définir l'activité prophylactique causale des composés ou la dose permettant de guérir 50 % des animaux infectés (CPD₅₀). La dose est toujours exprimée en mg de Pq diphosphate par kg.

Where [3] appears, read: single i.v. injection 3 h after sporozoite inoculation.
[4] abbreviates: Plasmodium berghei, iv, single i.v. injection 3 h after sporozoite inoculation.

Entries after “also recorded” stand apart in the source; their conditions may differ.

As to `COc1cc(NC(C)CCCNC(=O)[C@@H](C)N)c2ncccc2c1` (stereo partly drawn) [D-alanine, N-1-D-alanyl, N-4-(méthoxy-6-quinolinyl-8)pentanediamine-1,4], in series [1], the “toxicité aiguë compared with Pq” value is “très faible toxicité”.
Regarding `COc1cc(NC(C)CCCNC(=O)[C@H](C)N)c2ncccc2c1` (stereo partly drawn) [L-alanyl-Pq, N-1-L-alanyl, N-4-(méthoxy-6-quinolinyl-8) pentanediamine-1,4], in series [2], the “activité thérapeutique compared with Pq” value was “presque quatre fois supérieure à celle de la primaquine base” and the “index Pq (CPD₅₀ de la Pq/CPD₅₀ du composé)” value (“index Pq” below) is on record as 3,0. For the same molecule, in series [2] (setting [3]), the dose minimale effective is 4 mg Pq/kg, the “dose totalement curative (100 %)” value was 9,9 mg Pq/kg and the “CPD₅₀ (dose prophylactique causale guérissant 50 % des animaux infectés)” value is listed as 6,3 mg Pq/kg. For the same molecule, the “toxicité aiguë compared with Pq” value in series [1] is “meilleure réduction de toxicité; also recorded: moins toxique que la primaquine”.
In the case of `COc1cc(NC(C)CCCNC(=O)[C@@H](N)CCC(=O)O)c2ncccc2c1` (stereo partly drawn) [L-glutamyl-Pq, N-1-L-glutamyl, N-4-(méthoxy-6-quinolinyl-8) pentadiamine-1,4], in series [2] (setting [4]), the ED50 came to 8.5 mg/kg. In series [2], the “index thérapeutique (LD₅₀/CPD₅₀)” value is listed as 16,1 and the “index Pq” value was 2,2. Also, in series [1] (fold higher than Pq), the “LD₅₀ relative to the LD₅₀ of Pq” value is 4 x and the “MTD relative to the MTD of Pq” value is listed as 5 x. Further, in series [1] (single i.v. injection), the LD50 was found to be 136 mg/kg and the MTD was found to be 124 mg/kg. Moreover, the “toxicité aiguë compared with Pq” value in series [1] is given as “le moins toxique; also recorded: meilleure réduction de toxicité”.
In the case of `COc1cc(NC(C)CCCNC(=O)[C@H](CC(C)C)NC(=O)[C@H](C)N)c2ncccc2c1` (stereo partly drawn) [L-leucyl-L-alanyl-Pq, N-1-L-Alanyl-L-Leucyl, N-4-(Méthoxy-6-quinolinyl-8) pentanediamine-1,4], the “toxicité aiguë compared with Pq” value in series [1] was “meilleure réduction de toxicité”.
Take `COc1cc(NC(C)CCCNC(=O)[C@@H](N)CC(C)C)c2ncccc2c1` (stereo partly drawn) [L-leucyl-Pq, N-1-L-leucyl, N-4-(méthoxy-6-quinolinyl-8)pentanediamine-1,4]: in series [2], the “index Pq” value was 1,2. Also, in series [2] (setting [3]), the dose minimale effective is recorded as 7,6 mg Pq/kg and the “dose totalement curative (100 %)” value amounted to 30 mg Pq/kg. Moreover, the CPD₅₀ in series [2] (single i.v. injection 3 h after sporozoite inoculation, unit printed without mg) was 16,2 Pq/kg.
For the molecule `COc1cc(NC(C)CCCNC(=O)[C@@H](N)CCCCN)c2ncccc2c1` (stereo partly drawn) [L-lysyl-Pq], in series [2], the “index Pq” value is listed as 4,8. In series [2] (setting [3]), the dose minimale effective is reported as 1,7 mg Pq/kg, the “dose totalement curative (100 %)” value was 8,2 mg Pq/kg and the “CPD₅₀ (dose prophylactique causale guérissant 50 % des animaux infectés)” value is 3,9 mg Pq/kg. For the same molecule, the “plus toxique que la primaquine” value in series [1] (acute toxicity, fold versus primaquine) was 3 x. Moreover, the dose minimale toxique in series [1] (single i.v. injection) is listed as 8,2 mg Pq/kg.
On to `COc1cc(NC(C)CCCNC(=O)[C@@H](N)Cc2ccccc2)c2ncccc2c1` (stereo partly drawn) [L-phenylalanyl-Pq, N-1-L-phénylalanyl , N-4(methoxy-6-quinolinyl-8) pentanediamine-1,4], for which, in series [2], the “index Pq” value is listed as 3,1. In series [2] (setting [3]), the dose minimale effective is listed as 1,8 mg Pq/kg, the “dose totalement curative (100 %)” value was 21,3 mg Pq/kg and the “CPD₅₀ (dose prophylactique causale guérissant 50 % des animaux infectés)” value is listed as 6,1 mg Pq/kg. Moreover, the “toxicité aiguë compared with Pq” value in series [1] is reported as “voisine de celle de la Pq”.
Regarding `COc1cc(NC(C)CCCN)c2ncccc2c1` (stereo not shown) [Pq, 6-méthoxy-8-(4-amino-1-méthylbutylamino)-quinoléine, reference compound], the ED50 in series [2] (setting [4]) is 18.7 mg/kg. Moreover, the minimal effective dose in series [2] (Plasmodium berghei, iv, single i.v. injection 3 h after sporozoite inoculation, read-out: dose minimale effective) is 10.4 mg/kg. Also, in series [2] (at 25 mg/kg i.v.), the “activité thérapeutique” value was 75%. Further, the “index thérapeutique (LD₅₀/CPD₅₀)” value in series [2] was 1,7. Moreover, the “toxicité dès” value in series [1] (dose from which toxicity is seen, i.v.) is at least 25 mg/kg. In addition, in series [1] (single i.v. injection), the LD50 is 31 mg/kg and the MTD was found to be 25.7 mg/kg.
As to `COc1cc(NC(C)CCCNC(=O)CCCC(=O)O)c2ncccc2c1` (stereo not shown) [glutarryl-Pq], the “activité thérapeutique compared with Pq” value in series [2] is “nettement moins actifs que la Pq”.
Still for that read-out and setting: the value for `COc1cc(NC(C)CCCNC(=O)C(C)NC(=O)CCC(=O)O)c2ncccc2c1` [succinyl-L-alanyl-Pq] was “nettement moins actifs que la Pq”; that for `COc1cc(NC(C)CCCNC(=O)C(Cc2ccccc2)NC(=O)CCC(=O)O)c2ncccc2c1` [succinyl-L-phenylalanyl-Pq] was “nettement moins actifs que la Pq”.
Turning to L-glutamine, the “index Pq” value in series [2] was 1,9. Also, the “CPD₅₀ (dose prophylactique causale guérissant 50 % des animaux infectés)” value in series [2] (setting [3]) amounted to 10 mg Pq/kg.
